Experimental findings from ChEMBL document CHEMBL5236603, “Discovery of mobocertinib, a potent, oral inhibitor of EGFR exon 20 insertion mutations in non-small cell lung cancer” (Bioorg Med Chem Lett, 2023) are described below.

A short description of series [1]: Inhibition of mouse EGFR D770_N771insNPG mutant stably expressed in mouse BaF3 cells assessed as cell viability incubated for 3 days by Cell Titer-Glo assay. Conditions: BaF3, 72 h. It counts as cell-based.
Series [2] can be described thus: Inhibition of mouse EGFR V769_D770insASV mutant stably expressed in mouse BaF3 cells assessed as cell viability incubated for 3 days by Cell Titer-Glo assay. It counts as cell-based. Conditions: BaF3, 72 h.
Series [3] has as its target T1, Epidermal growth factor receptor (Homo sapiens, UniProt P00533). Put plainly: Inhibition of […]-induced EGFR phosphorylation in human A549 cells pretreated for 2 hrs followed by EGF stimulation by immune assay. Type of series: cell-based.
Series [4] in a line: Cmax in CD-1 mouse at 10 mg/kg, po by LC/MS/MS analysis. The settings on record: in vivo. Type of series: ADME, organism-based. More on the design: dose 10 mg/kg, route po.
Series [5] can be described thus: AUClast in CD-1 rat at 10 mg/kg, po by LC/MS/MS analysis. Type of series: ADME, organism-based. Also noted: dose 10 mg/kg, route po. The settings on record: in vivo.
Series [6] deals with BaF3. Put plainly: In vivo antitumor activity against mouse BaF3 cells expressing EGFR exon 20 insertion (ex20ins) ASV implanted in SCID mouse assessed as tumor growth inhibition at 100 mg/kg, po administered for 7 consecutive days. The settings on record: BaF3, 168 h, time 7 day, read-out: TGI. Type of series: functional.
The subject of series [7] is BaF3. Put plainly: In vivo antitumor activity against mouse BaF3 cells expressing EGFR exon 20 insertion (ex20ins) ASV implanted in SCID mouse assessed as tumor growth inhibition at 30 mg/kg, po administered for 7 consecutive days. It counts as functional. The settings on record: BaF3, 168 h, time 7 day, read-out: TGI.
Series [8] is described as follows: Toxicity in SCID mouse assessed as body weight change at 100 mg/kg, po administered for 7 consecutive days. It counts as organism-based. The settings on record: in vivo.
Series [9] addresses Epidermal growth factor receptor (Homo sapiens, UniProt P04626+P00533+Q15303+P21860, L858R). Put plainly: Inhibition of mouse EGFR L858R mutant stably expressed in mouse BaF3 cells assessed as cell viability incubated for 3 days by Cell Titer-Glo assay. It counts as cell-based. In general terms: ATP-based viability assays read luminescence as a measure of living cells.
A short description of series [10]: Inhibition of mouse EGFR L858R-T790M mutant stably expressed in mouse BaF3 cells assessed as cell viability incubated for 3 days by Cell Titer-Glo assay. The settings on record: BaF3, 72 h. Type of series: cell-based.
Series [11] has as its target T1, Epidermal growth factor receptor. Briefly: Inhibition of human EGFR at 1 uM by hotspot assay relative to control.
Series [12] has as its target Receptor tyrosine-protein kinase erbB-2 (Homo sapiens) (UniProt P04626). Put plainly: Inhibition of human HER2 at 1 uM by hotspot assay relative to control.
Series [13] deals with Tyrosine-protein kinase Blk (Homo sapiens) (UniProt P51451). Put plainly: Inhibition of human BLK at 1 uM by hotspot assay relative to control.
Chain of Tyrosine-protein kinase Blk (Homo sapiens) (P51451 2-505 limits assumed): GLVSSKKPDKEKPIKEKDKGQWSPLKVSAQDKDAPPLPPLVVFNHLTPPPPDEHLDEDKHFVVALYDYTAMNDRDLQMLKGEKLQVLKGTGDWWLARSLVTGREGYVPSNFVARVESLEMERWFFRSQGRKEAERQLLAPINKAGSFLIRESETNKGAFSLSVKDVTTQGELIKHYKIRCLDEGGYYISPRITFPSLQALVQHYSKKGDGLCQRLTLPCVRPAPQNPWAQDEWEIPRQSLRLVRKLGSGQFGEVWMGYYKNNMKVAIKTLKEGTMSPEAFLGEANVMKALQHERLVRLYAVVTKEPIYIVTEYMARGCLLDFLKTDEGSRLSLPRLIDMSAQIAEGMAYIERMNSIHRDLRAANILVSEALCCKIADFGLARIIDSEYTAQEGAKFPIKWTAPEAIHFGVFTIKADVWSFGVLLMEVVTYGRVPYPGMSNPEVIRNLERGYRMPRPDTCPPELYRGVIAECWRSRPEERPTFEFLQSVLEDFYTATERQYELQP
Series [14] deals with T2, Tyrosine-protein kinase TXK (Homo sapiens) (UniProt P42681).
T2 sequence (whole entry): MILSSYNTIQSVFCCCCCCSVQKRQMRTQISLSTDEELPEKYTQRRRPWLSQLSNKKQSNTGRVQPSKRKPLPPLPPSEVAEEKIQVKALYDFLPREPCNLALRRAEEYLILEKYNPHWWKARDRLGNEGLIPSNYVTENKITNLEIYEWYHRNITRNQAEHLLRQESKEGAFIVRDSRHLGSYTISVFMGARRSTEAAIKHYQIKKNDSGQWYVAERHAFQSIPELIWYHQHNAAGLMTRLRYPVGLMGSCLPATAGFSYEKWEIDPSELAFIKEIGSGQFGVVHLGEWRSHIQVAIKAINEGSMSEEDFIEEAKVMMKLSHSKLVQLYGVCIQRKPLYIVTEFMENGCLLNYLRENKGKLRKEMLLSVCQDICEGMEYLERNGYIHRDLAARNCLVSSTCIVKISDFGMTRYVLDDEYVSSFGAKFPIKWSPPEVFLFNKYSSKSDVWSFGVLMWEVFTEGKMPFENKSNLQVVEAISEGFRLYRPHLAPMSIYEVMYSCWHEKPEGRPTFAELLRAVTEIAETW
Put plainly: Inhibition of human TXK at 1 uM by hotspot assay relative to control.

The target in series [15] is T3, Cytoplasmic tyrosine-protein kinase BMX (Homo sapiens) (UniProt P51813).
T3 sequence (whole entry): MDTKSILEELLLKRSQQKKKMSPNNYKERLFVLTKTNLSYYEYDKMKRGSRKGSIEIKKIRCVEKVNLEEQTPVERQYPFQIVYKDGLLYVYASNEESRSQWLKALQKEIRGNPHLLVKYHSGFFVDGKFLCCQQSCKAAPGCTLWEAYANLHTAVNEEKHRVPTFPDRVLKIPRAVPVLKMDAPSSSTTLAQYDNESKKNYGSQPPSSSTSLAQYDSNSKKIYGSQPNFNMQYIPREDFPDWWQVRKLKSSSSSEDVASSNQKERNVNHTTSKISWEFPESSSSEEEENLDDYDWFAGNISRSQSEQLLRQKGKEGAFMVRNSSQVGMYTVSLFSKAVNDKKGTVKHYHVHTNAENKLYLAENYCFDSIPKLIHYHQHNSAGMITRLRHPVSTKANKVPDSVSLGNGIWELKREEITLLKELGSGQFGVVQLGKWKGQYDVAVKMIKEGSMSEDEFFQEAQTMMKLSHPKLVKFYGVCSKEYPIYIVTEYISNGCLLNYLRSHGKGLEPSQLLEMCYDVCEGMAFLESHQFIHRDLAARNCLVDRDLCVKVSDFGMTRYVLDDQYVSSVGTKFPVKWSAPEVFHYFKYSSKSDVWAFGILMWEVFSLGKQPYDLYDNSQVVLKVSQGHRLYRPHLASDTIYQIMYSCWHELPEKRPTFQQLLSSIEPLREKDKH
Put plainly: Inhibition of human BMX at 1 uM by hotspot assay relative to control.

Series [16] concerns the target T4, Tyrosine-protein kinase Tec (Homo sapiens) (UniProt P42680).
T4 sequence (whole entry): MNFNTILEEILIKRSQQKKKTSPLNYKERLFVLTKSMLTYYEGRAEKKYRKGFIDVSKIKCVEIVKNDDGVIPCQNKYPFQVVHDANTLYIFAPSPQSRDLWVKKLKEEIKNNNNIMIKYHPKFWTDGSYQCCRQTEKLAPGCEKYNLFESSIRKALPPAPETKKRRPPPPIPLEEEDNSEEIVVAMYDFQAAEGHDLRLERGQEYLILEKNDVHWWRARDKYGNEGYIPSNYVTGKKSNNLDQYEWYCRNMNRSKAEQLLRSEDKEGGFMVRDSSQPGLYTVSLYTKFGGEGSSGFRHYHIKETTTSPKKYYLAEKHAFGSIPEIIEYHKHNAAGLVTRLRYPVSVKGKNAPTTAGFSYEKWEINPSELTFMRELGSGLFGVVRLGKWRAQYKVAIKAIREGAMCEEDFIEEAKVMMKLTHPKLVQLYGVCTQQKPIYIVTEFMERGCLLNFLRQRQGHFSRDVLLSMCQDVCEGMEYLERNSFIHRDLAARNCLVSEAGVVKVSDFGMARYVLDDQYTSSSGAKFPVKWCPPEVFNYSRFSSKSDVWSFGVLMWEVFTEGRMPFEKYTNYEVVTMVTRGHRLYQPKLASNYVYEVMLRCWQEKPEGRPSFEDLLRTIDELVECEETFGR
Put plainly: Inhibition of human TEC at 1 uM by hotspot assay relative to control.

Series [17] has as its target Tyrosine-protein kinase BTK (Homo sapiens) (UniProt Q06187). Put plainly: Inhibition of human BTK at 1 uM by hotspot assay relative to control.

As usually defined, the IC50 is the concentration that gives 50% inhibition. For orientation: Cmax means the highest concentration seen after dosing. Usually AUC(0-t) stands for the area under the concentration-time curve up to a stated or last time point. A word on the inhibition: it is the share of the control response that was lost under treatment. Higher therefore signals a strong effect.

T1 sequence (P00533 whole entry): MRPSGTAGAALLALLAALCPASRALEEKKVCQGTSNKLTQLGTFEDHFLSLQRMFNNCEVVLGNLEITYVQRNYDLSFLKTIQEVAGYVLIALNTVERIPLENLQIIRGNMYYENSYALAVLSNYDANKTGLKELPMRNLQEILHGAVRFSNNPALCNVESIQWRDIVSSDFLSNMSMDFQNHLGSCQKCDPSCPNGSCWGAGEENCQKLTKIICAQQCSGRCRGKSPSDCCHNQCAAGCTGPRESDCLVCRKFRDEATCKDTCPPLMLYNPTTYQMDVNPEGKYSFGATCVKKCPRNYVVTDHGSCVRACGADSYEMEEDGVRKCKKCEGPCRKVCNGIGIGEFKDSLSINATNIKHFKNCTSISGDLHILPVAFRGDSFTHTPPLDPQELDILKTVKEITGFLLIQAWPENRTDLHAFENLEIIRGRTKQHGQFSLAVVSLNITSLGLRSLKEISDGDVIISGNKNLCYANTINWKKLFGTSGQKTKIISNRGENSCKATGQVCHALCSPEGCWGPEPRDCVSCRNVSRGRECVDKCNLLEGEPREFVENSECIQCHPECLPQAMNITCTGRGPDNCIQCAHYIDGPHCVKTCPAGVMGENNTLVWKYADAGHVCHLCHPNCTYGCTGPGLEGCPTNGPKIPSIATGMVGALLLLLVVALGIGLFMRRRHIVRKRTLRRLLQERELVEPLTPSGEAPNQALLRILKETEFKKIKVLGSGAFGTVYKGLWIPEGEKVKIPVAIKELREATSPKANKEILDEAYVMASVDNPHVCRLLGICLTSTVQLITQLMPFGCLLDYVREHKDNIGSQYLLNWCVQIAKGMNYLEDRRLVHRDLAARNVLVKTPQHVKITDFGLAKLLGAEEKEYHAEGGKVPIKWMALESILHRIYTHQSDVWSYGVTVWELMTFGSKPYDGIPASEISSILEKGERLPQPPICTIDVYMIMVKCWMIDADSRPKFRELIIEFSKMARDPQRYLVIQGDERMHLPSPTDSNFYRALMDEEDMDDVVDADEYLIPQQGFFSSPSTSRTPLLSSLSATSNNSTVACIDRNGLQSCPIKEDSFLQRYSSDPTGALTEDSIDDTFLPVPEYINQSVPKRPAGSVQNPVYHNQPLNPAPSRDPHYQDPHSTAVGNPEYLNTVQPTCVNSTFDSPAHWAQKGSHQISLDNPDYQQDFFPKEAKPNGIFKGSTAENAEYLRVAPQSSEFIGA
Chain of Receptor tyrosine-protein kinase erbB-2 (Homo sapiens) (P04626 whole entry): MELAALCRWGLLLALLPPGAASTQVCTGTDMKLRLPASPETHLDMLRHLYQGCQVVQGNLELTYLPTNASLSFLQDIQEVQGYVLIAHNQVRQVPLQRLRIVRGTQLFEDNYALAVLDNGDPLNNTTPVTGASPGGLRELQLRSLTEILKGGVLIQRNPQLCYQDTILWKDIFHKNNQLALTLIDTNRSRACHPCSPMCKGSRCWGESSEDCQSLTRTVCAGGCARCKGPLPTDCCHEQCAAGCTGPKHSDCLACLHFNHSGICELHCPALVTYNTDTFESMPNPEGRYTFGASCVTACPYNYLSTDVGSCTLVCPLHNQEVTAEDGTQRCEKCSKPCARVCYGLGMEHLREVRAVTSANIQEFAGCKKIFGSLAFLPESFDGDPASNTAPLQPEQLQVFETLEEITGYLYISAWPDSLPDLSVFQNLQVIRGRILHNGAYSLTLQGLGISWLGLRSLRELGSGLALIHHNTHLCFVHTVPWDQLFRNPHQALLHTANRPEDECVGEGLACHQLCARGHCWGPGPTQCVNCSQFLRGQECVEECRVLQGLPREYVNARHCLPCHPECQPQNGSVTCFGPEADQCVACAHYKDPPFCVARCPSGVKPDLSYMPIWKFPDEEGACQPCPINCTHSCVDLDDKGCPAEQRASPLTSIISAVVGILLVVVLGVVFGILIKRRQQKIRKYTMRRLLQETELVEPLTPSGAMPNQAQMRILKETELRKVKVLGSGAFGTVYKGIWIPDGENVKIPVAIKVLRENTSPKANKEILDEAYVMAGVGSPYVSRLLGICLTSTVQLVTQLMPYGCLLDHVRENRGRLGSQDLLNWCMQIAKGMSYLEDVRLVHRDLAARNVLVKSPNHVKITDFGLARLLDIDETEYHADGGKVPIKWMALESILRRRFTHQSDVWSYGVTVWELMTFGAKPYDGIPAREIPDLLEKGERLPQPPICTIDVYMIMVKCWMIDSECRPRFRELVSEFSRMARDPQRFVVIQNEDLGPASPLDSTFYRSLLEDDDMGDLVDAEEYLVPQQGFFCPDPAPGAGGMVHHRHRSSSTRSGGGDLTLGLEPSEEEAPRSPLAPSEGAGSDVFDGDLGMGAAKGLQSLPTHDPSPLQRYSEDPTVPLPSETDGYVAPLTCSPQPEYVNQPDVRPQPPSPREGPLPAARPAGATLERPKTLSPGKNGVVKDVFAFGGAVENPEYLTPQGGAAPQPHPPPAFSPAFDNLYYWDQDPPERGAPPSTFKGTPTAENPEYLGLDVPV
Chain of Tyrosine-protein kinase BTK (Homo sapiens) (Q06187 whole entry): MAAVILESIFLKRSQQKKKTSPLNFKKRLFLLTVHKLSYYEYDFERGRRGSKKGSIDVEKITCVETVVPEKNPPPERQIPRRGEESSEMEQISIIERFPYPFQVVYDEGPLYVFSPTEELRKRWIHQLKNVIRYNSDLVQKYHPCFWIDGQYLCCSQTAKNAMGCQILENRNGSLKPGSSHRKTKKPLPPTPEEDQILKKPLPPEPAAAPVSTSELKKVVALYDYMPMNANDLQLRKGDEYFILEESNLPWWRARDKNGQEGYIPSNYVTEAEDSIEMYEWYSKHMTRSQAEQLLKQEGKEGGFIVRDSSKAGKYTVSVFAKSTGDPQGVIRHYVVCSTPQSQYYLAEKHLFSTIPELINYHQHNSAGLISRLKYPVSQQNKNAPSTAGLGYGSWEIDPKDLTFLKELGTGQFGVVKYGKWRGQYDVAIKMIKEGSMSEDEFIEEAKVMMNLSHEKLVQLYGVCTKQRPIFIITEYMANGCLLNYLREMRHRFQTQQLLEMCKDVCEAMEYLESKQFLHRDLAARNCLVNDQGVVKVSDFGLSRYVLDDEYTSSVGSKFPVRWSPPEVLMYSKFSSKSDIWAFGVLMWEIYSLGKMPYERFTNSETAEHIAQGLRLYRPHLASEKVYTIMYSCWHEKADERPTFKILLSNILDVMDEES

As for `C=CC(=O)Nc1cc(Nc2ncc(C(=O)OC(C)C)c(-c3cn(C)c4ccccc34)n2)c(OC)cc1N(C)CCN(C)C` [MOBOCERTINIB], the 50% inhibitory concentration (IC50) in [1] was found to be 0.004 µM; in series [2], 0.011 µM; in series [3], 0.031 µM; in series [9] it was 0.0033 µM; in [10], 0.0213 µM. Also, the Cmax in [4] stood at 0.082 µg/mL. The exposure AUC(0-t) in [5] was determined as 1.78 µg·h/mL. Also, the inhibition in vivo at 100 mg/kg with BaF3 [6] stood at 89%. Also, the inhibition in vivo at 30 mg/kg in the series with BaF3 [7] turned out to be 77%. Moreover, in [8], the Activity result was “Non-Toxic”. For the same molecule, the inhibition was > 97% in [11]; > 97% in [12]; > 81% in series [13]; > 81% in series [14]; > 81% in [15]; > 81% in [16]. Besides, the inhibition in series [17] was > 81%.
